PMC7318222, “A Family of Water‐Immiscible, Dipolar Aprotic, Diamide Solvents from Succinic Acid” (Chemsuschem, 2020)

How the values were obtained:
[1] = Miscibility with water; assay type: physicochemical; conditions: this work
[2] = Miscibility with hexane; assay type: physicochemical; conditions: this work

With `CN(C)C=O` [DMF, N,N‐dimethylformamide] as the compound, how does the Water misc. [1] read?
The Water misc. was “yes^[a]”.

And the Hexane misc. [2]?
The Hexane misc. was “no^[a]”.
